Earlier results as cited in patent US20140322324A1, “Composition For The Treatment Of Bacterial Infections” (priority 2011, published 2014).

Test system: Staphylococcus aureus (ATCC #14154 and #14775)
Details: two strains of Staphylococcus aureus (ATCC #14154 and #14775); for the combination: concentration of each

SMILES: CCCCCCCCCCCC(=O)OCC(O)CO (stereo not shown) [monolaurin]
- bactericidal concentration in culture: mirrored origanum oil
